From patent US10752601B2, “Crystal form and salt of 3-(3,5-dichloro-4-hydroxybenzoyl)-1,1-dioxo-2,3-dihydro-1,3-benzothiazole” (FUJI YAKUHIN CO., LTD., priority 2017, dated 2020)
Read-outs that look alike come from different tables or passages of the source. Values belong to the compound of their own block, whether it stands above or below them.

Assays:
[1] = Test Example 1 (flowability and floodability), Carr index table; type: physicochemical
Procedure: Test Example 1 (flowability and floodability): the compressibility was calculated by measuring bulk density and tap density of the crystals in Examples 1 and 2, and moreover, their dynamic bulk density, angle of repose, angle of spatula, uniformity, cohesion, angle of fall, angle of difference, and degree of dispersion were found, and flowability and floodability were evaluated using the Carr index table. (Table 1).

[2] = Test Example 2 (absorption properties at time of oral administration to rat); type: in vivo; conditions: single oral, mean ± SD (n = 4); for concentration at 1 hr: read-out: Unchanged compound level in blood plasma 1 hr; for concentration at 2 hr: read-out: Unchanged compound level in blood plasma 2 hr; for concentration at 4 hr: read-out: Unchanged compound level in blood plasma 4 hr; for concentration at 8 hr: read-out: Unchanged compound level in blood plasma 8 hr; for concentration at 24 hr: read-out: Unchanged compound level in blood plasma 24 hr; for AUC(0-t): read-out: AUC0-24 hr
Procedure: A test substance suspended in a 0.5% solution of methylcellulose was orally administered to a male CD (SD) rat (CHARLES RIVER LABORATORIES JAPAN, INC., 7 weeks old when used) in a dose of 30 and 300 mg/kg, and blood was then collected after 0.25, 0.5, 1, 2, 4, 8, and 24 hours. The level of unchanged compound in blood plasma was measured by HPLC (Table 2, Table 3), and pharmacokinetic parameters were calculated and absorption was evaluated (Table 4).

[3] = male, CD (SD), plasma, po, 30 mg/kg, 30 mg/kg
[4] = male, CD (SD), plasma, po, 300 mg/kg, 300 mg/kg

Floodability index ([1]; after pulverization): 43
Flowability index ([1]; after pulverization): 36
concentration at 1 hr [2, 3]: 49.8 ± 22.7 µg/mL
concentration at 2 hr [2, 3]: 33 ± 11 µg/mL
concentration at 4 hr [2, 3]: 26.6 ± 13 µg/mL
concentration at 8 hr [2, 3]: 20.4 ± 5.53 µg/mL
concentration at 24 hr [2, 3]: 1.16 ± 0.45 µg/mL
AUC(0-t) [2, 3]: 412 ± 123 µg·h/mL
Cmax ([2]; male, CD (SD), plasma, po, 30 mg/kg, 30 mg/kg, read-out: Cmax): 59.2 ± 29.5 µg/mL
Unchanged compound level in blood plasma 0.25 hr ([2]; 30 mg/kg): 38.18 ± 23.24 µg/mL
Unchanged compound level in blood plasma 0.5 hr ([2]; 30 mg/kg): 58.51 ± 30.81 µg/mL
Tmax ([2]; 30 mg/kg): 0.63 ± 0.25 h
Unchanged compound level in blood plasma 0.25 hr ([2]; 300 mg/kg): 174.78 ± 19.03 µg/mL
Unchanged compound level in blood plasma 0.5 hr ([2]; 300 mg/kg): 275.88 ± 42.51 µg/mL
Unchanged compound level in blood plasma 1 hr ([2]; 300 mg/kg): 275.53 ± 30.24 µg/mL
Unchanged compound level in blood plasma 2 hr ([2]; 300 mg/kg): 298.88 ± 35.19 µg/mL
Unchanged compound level in blood plasma 4 hr ([2]; 300 mg/kg): 285.55 ± 26.38 µg/mL
Unchanged compound level in blood plasma 8 hr ([2]; 300 mg/kg): 267.85 ± 25.73 µg/mL
Unchanged compound level in blood plasma 24 hr ([2]; 300 mg/kg): 73.31 ± 27.54 µg/mL
AUC0-24 hr ([2]; 300 mg/kg): 4923.74 ± 547.44 µg·h/mL
Cmax ([2]; 300 mg/kg): 307.28 ± 26.20 µg/mL
Tmax ([2]; 300 mg/kg): 4.00 ± 2.83 h
Compound: O=C(c1cc(Cl)c(O)c(Cl)c1)N1CS(=O)(=O)c2ccccc21 [Example 1, 3-(3,5-dichloro-4-hydroxybenzoyl)-1,1-dioxo-2,3-dihydro-1,3-benzothiazole]

Floodability index ([1]; after pulverization): 49.5
Flowability index ([1]; after pulverization): 42
Floodability index ([1]; before pulverization): 57.5
Flowability index ([1]; before pulverization): 65
concentration at 1 hr [2, 4]: 140 ± 20.3 µg/mL
concentration at 2 hr [2, 4]: 264 ± 42.2 µg/mL
concentration at 4 hr [2, 4]: 314 ± 11.2 µg/mL
concentration at 8 hr [2, 4]: 267 ± 38.4 µg/mL
concentration at 24 hr [2, 4]: 47.2 ± 19.9 µg/mL
AUC(0-t) [2, 4]: 4530 ± 269 µg·h/mL
Cmax ([2]; male, CD (SD), plasma, po, 300 mg/kg, 300 mg/kg, read-out: Cmax): 316 ± 11.4 µg/mL
Tmax ([2]; male, CD (SD), plasma, po, 300 mg/kg, 300 mg/kg, read-out: Tmax): 3.5 ± 1 h
Unchanged compound level in blood plasma 0.25 hr ([2]; 30 mg/kg): 12.45 ± 3.94 µg/mL
Unchanged compound level in blood plasma 0.5 hr ([2]; 30 mg/kg): 27.41 ± 4.71 µg/mL
Unchanged compound level in blood plasma 1 hr ([2]; 30 mg/kg): 37.38 ± 2.85 µg/mL
Unchanged compound level in blood plasma 2 hr ([2]; 30 mg/kg): 38.54 ± 0.91 µg/mL
Unchanged compound level in blood plasma 4 hr ([2]; 30 mg/kg): 23.23 ± 3.08 µg/mL
Unchanged compound level in blood plasma 8 hr ([2]; 30 mg/kg): 19.23 ± 2.51 µg/mL
Unchanged compound level in blood plasma 24 hr ([2]; 30 mg/kg): 1.35 ± 0.73 µg/mL
AUC0-24 hr ([2]; 30 mg/kg): 371.97 ± 34.08 µg·h/mL
Cmax ([2]; 30 mg/kg): 39.03 ± 0.43 µg/mL
Tmax ([2]; 30 mg/kg): 1.50 ± 0.58 h
Unchanged compound level in blood plasma 0.25 hr ([2]; 300 mg/kg): 39.18 ± 4.61 µg/mL
Unchanged compound level in blood plasma 0.5 hr ([2]; 300 mg/kg): 79.93 ± 13.24 µg/mL
Compound: O=C(c1cc(Cl)c(O)c(Cl)c1)N1CS(=O)(=O)c2ccccc21 [Example 2, 3-(3,5-dichloro-4-hydroxybenzoyl)-1,1-dioxo-2,3-dihydro-1,3-benzothiazole]
